Data taken from PubChem BioAssay AID248 (DTP/NCI, 2004).
“And” between values parts separate entries of the source, which are not always exact repeats. Equal entries are not always repeated. Toxic doses and inconclusive results are not listed.

Tested on: L1210 leukemia ip in BDF1 mice, survival T/C
Experiment: NCI In Vivo Anticancer Drug Screen. Data for tumor model L1210 Leukemia (intraperitoneal) in B6D2F1 (BDF1) mice
Conditions: endpoint: mean survival time, higher = longer survival
In short: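 Read-out is survival time, reported as the treated-group measurement over the vehicle-control measurement.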

[1] = dose: 100.0 mg/kg/injection, schedule: Q04DX002 (ip), vehicle: Klucel (hydroxypropylcellulose) (HPC)
[2] = dose: 100.0 mg/kg/injection, schedule: Q04DX003 (ip), vehicle: Klucel (hydroxypropylcellulose) (HPC)
[3] = dose: 200.0 mg/kg/injection, schedule: Q04DX003 (ip), vehicle: Klucel (hydroxypropylcellulose) (HPC)

Question: `Cc1ccc(C)c(NCC(=O)NN)c1` was tested. Which T/C [1] did it give?
Answer: 103 % of control

Question: What about the T/C (dose: 200.0 mg/kg/injection, schedule: Q04DX002 (ip), vehicle: Klucel (hydroxypropylcellulose) (HPC)) of the same molecule?
Answer: 100 % of control

Question: And the T/C (dose: 400.0 mg/kg/injection, schedule: Q04DX002 (ip), vehicle: Klucel (hydroxypropylcellulose) (HPC))?
Answer: 100 % of control

Question: Which results are given for `CCCCCCCCCCCCNC(=O)CCl`?
Answer: T/C (dose: 100.0 mg/kg/injection, schedule: Q01DX009 (ip), vehicle: Klucel (hydroxypropylcellulose) (HPC)): 87 % of control; T/C [2]: 91 % of control; T/C (dose: 200.0 mg/kg/injection, schedule: Q01DX009 (ip), vehicle: Klucel (hydroxypropylcellulose) (HPC)): 90 % of control; T/C [3]: 89 % of control; T/C (dose: 400.0 mg/kg/injection, schedule: Q01DX009 (ip), vehicle: Klucel (hydroxypropylcellulose) (HPC)): 91 % of control

Question: With `Cc1noc(N)c1[N+](=O)[O-]` as the molecule, how does the T/C (dose: 12.5 mg/kg/injection, schedule: Q01DX009 (ip), vehicle: saline) read?
Answer: 97 % of control

Question: And the T/C (dose: 25.0 mg/kg/injection, schedule: Q01DX009 (ip), vehicle: saline)?
Answer: 109 % of control

Question: And the T/C (dose: 50.0 mg/kg/injection, schedule: Q01DX009 (ip), vehicle: saline)?
Answer: 97 % of control

Question: And the T/C (dose: 100.0 mg/kg/injection, schedule: Q01DX009 (ip), vehicle: saline)?
Answer: 86 % of control

Question: And the T/C (dose: 100.0 mg/kg/injection, schedule: Q04DX003 (ip), vehicle: other)?
Answer: 92 % of control

Question: What about the T/C (dose: 200.0 mg/kg/injection, schedule: Q04DX003 (ip), vehicle: other) of the same molecule?
Answer: 96 % of control

Question: What about the T/C (dose: 400.0 mg/kg/injection, schedule: Q04DX003 (ip), vehicle: other) of the same molecule?
Answer: 92 % of control

Question: What does the source list for `C[n+]1ccc2cc(N)c3c4ccccc4sc3c2c1`?
Answer: T/C (dose: 1.56 mg/kg/injection, schedule: Q01DX009 (ip), vehicle: saline with Tween-80): 110 % of control; T/C (dose: 3.12 mg/kg/injection, schedule: Q01DX009 (ip), vehicle: saline with Tween-80): 100 % of control; T/C (dose: 6.25 mg/kg/injection, schedule: Q01DX009 (ip), vehicle: saline with Tween-80): 105 % of control; T/C (dose: 12.5 mg/kg/injection, schedule: Q04DX003 (ip), vehicle: saline with Tween-80): 105 % of control; T/C (dose: 25.0 mg/kg/injection, schedule: Q04DX003 (ip), vehicle: saline with Tween-80): 105 % of control; T/C (dose: 50.0 mg/kg/injection, schedule: Q04DX003 (ip), vehicle: saline with Tween-80): 115 % of control

Question: How did the T/C [2] turn out when `COC(=O)Nc1ccc(C)c(NC(=O)OC)c1` was run?
Answer: 104 % of control

Question: What about the T/C [3] of the same molecule?
Answer: 93 % of control

Question: And the T/C (dose: 400.0 mg/kg/injection, schedule: Q04DX003 (ip), vehicle: Klucel (hydroxypropylcellulose) (HPC))?
Answer: 107 % of control

Question: For `O=C(COc1ccccc1)CC(O)(C(F)(F)F)C(F)(F)F`, which T/C (dose: 100.0 mg/kg/injection, schedule: Q04DX003 (ip), vehicle: saline with Tween-80) is on record?
Answer: 97 % of control

Question: And the T/C (dose: 200.0 mg/kg/injection, schedule: Q04DX003 (ip), vehicle: saline with Tween-80)?
Answer: 92 % of control

Question: Which results are given for `CC1CC(Cc2ccccc2CC2CC(C)OC2=O)C(=O)O1` (centres undefined)?
Answer: T/C (dose: 100.0 mg/kg/injection, schedule: Q04DX003 (ip), vehicle: saline): 90 % of control; T/C (dose: 200.0 mg/kg/injection, schedule: Q04DX003 (ip), vehicle: saline): 89 % of control; T/C (dose: 400.0 mg/kg/injection, schedule: Q04DX003 (ip), vehicle: saline): 89 % of control

Question: How did the T/C (dose: 25.0 mg/kg/injection, schedule: Q04DX002 (ip), vehicle: Klucel (hydroxypropylcellulose) (HPC)) turn out when `NC(=O)C(NC(=O)c1ccccc1)SCc1ccccc1` (centres undefined) was run?
Answer: 98 % of control

Question: What about the T/C (dose: 50.0 mg/kg/injection, schedule: Q04DX002 (ip), vehicle: Klucel (hydroxypropylcellulose) (HPC)) of the same molecule?
Answer: 95 % of control

Question: And the T/C [1]?
Answer: 95 % of control

Question: Which results are given for `O=C(O)Cc1cc2c(cc1[N+](=O)[O-])OCO2`?
Answer: T/C (dose: 50.0 mg/kg/injection, schedule: Q01DX001 (ip), vehicle: saline): 103 % of control; T/C (dose: 100.0 mg/kg/injection, schedule: Q01DX001 (ip), vehicle: saline): 97 % of control; T/C (dose: 200.0 mg/kg/injection, schedule: Q01DX001 (ip), vehicle: saline): 97 % of control; T/C (dose: 400.0 mg/kg/injection, schedule: Q01DX001 (ip), vehicle: saline): 103 % of control

Question: For `CCc1c(CNc2ccc(C(=O)NC(CCC(=O)O)C(=O)O)cc2)ccc2nc(N)nc(N)c12` (centres undefined), which T/C (dose: 0.12 mg/kg/injection, schedule: Q01DX003 (ip), vehicle: saline) is on record?
Answer: 89 % of control

Question: And the T/C (dose: 4.0 mg/kg/injection, schedule: Q01DX009 (ip), vehicle: saline)?
Answer: 88 % of control

Question: And the T/C (dose: 2.5 micrograms/kg/injection, schedule: Q01DX009 (ip), vehicle: saline)?
Answer: 101 % of control

Question: And the T/C (dose: 5.0 micrograms/kg/injection, schedule: Q01DX009 (ip), vehicle: saline)?
Answer: 111 % of control

Question: And the T/C (dose: 10.0 micrograms/kg/injection, schedule: Q01DX009 (ip), vehicle: saline)?
Answer: 113 % of control

Question: How did the T/C (dose: 100.0 mg/kg/injection, schedule: Q01DX Z (ip), vehicle: saline) turn out when `O=[N+]([O-])c1ccc(C=Nc2ccc3c(c2)C(Br)c2ccccc2-3)cc1` (centres undefined) was run?
Answer: 91 % of control

Question: And the T/C (dose: 200.0 mg/kg/injection, schedule: Q01DX Z (ip), vehicle: saline)?
Answer: 90 % of control

Question: What about the T/C (dose: 400.0 mg/kg/injection, schedule: Q01DX Z (ip), vehicle: saline) of the same molecule?
Answer: 95 % of control

Question: For `O=C(CCC(=O)Nc1ccc(C2=NCCN2)cc1)Nc1ccc(C2=NCCN2)cc1`, which T/C (dose: 2.0 mg/kg/injection, schedule: Q01DX Z (ip), vehicle: carboxymethylcellulose (CMC)) is on record?
Answer: 100 % of control

Question: And the T/C (dose: 3.0 mg/kg/injection, schedule: Q01DX Z (ip), vehicle: carboxymethylcellulose (CMC))?
Answer: 105 % of control

Question: And the T/C (dose: 4.0 mg/kg/injection, schedule: Q01DX Z (ip), vehicle: carboxymethylcellulose (CMC))?
Answer: 114 % of control

Question: What about the T/C (dose: 6.0 mg/kg/injection, schedule: Q01DX Z (ip), vehicle: carboxymethylcellulose (CMC)) of the same molecule?
Answer: 107 % of control

Question: And the T/C (dose: 12.0 mg/kg/injection, schedule: Q01DX Z (ip), vehicle: carboxymethylcellulose (CMC))?
Answer: 173 % of control

Question: And the T/C (dose: 16.0 mg/kg/injection, schedule: Q01DX Z (ip), vehicle: carboxymethylcellulose (CMC))?
Answer: 218 % of control and 234 % of control

Question: What about the T/C (dose: 24.0 mg/kg/injection, schedule: Q01DX Z (ip), vehicle: carboxymethylcellulose (CMC)) of the same molecule?
Answer: 216 % of control

Question: And the T/C (dose: 38.0 mg/kg/injection, schedule: Q01DX001 (ip), vehicle: carboxymethylcellulose (CMC))?
Answer: 120 % of control

Question: And the T/C (dose: 38.0 mg/kg/injection, schedule: Q01DX001 (ip), vehicle: other)?
Answer: 117 % of control

Question: And the T/C (dose: 56.0 mg/kg/injection, schedule: Q01DX001 (ip), vehicle: carboxymethylcellulose (CMC))?
Answer: 120 % of control

Question: What about the T/C (dose: 56.0 mg/kg/injection, schedule: Q01DX001 (ip), vehicle: other) of the same molecule?
Answer: 119 % of control

Question: What about the T/C (dose: 62.0 mg/kg/injection, schedule: Q01DX Z (oral), vehicle: carboxymethylcellulose (CMC)) of the same molecule?
Answer: 104 % of control

Question: And the T/C (dose: 64.0 mg/kg/injection, schedule: Q01DX Z (ip), vehicle: carboxymethylcellulose (CMC))?
Answer: 113 % of control

Question: What about the T/C (dose: 125.0 mg/kg/injection, schedule: Q01DX Z (oral), vehicle: carboxymethylcellulose (CMC)) of the same molecule?
Answer: 104 % of control

Question: What about the T/C (dose: 128.0 mg/kg/injection, schedule: Q01DX001 (ip), vehicle: carboxymethylcellulose (CMC)) of the same molecule?
Answer: 183 % of control

Question: What about the T/C (dose: 250.0 mg/kg/injection, schedule: Q01DX Z (oral), vehicle: carboxymethylcellulose (CMC)) of the same molecule?
Answer: 110 % of control

Question: What about the T/C (dose: 500.0 mg/kg/injection, schedule: Q01DX Z (oral), vehicle: carboxymethylcellulose (CMC)) of the same molecule?
Answer: 177 % of control

Question: How did the T/C (dose: 50.0 mg/kg/injection, schedule: Q01DX001 (ip), vehicle: carboxymethylcellulose (CMC)) turn out when `CCC(CC)(CC#N)C1CCCCC1` was run?
Answer: 98 % of control

Question: What about the T/C (dose: 100.0 mg/kg/injection, schedule: Q01DX001 (ip), vehicle: carboxymethylcellulose (CMC)) of the same molecule?
Answer: 104 % of control

Question: And the T/C (dose: 200.0 mg/kg/injection, schedule: Q01DX001 (ip), vehicle: carboxymethylcellulose (CMC))?
Answer: 98 % of control

Question: What about the T/C (dose: 400.0 mg/kg/injection, schedule: Q01DX001 (ip), vehicle: carboxymethylcellulose (CMC)) of the same molecule?
Answer: 104 % of control

Question: For `CCCCCNC(=S)Nc1ccccc1`, which T/C (dose: 38.0 mg/kg/injection, schedule: Q04DX003 (ip), vehicle: other) is on record?
Answer: 98 % of control

Question: And the T/C (dose: 75.0 mg/kg/injection, schedule: Q01DX001 (ip), vehicle: other)?
Answer: 98 % of control

Question: And the T/C (dose: 75.0 mg/kg/injection, schedule: Q04DX003 (ip), vehicle: other)?
Answer: 102 % of control

Question: And the T/C (dose: 150.0 mg/kg/injection, schedule: Q01DX001 (ip), vehicle: other)?
Answer: 112 % of control

Question: What about the T/C (dose: 150.0 mg/kg/injection, schedule: Q04DX003 (ip), vehicle: other) of the same molecule?
Answer: 96 % of control

Question: What about the T/C (dose: 300.0 mg/kg/injection, schedule: Q01DX001 (ip), vehicle: other) of the same molecule?
Answer: 110 % of control

Question: Which T/C (dose: 25.0 mg/kg/injection, schedule: Q04DX003 (ip), vehicle: Klucel (hydroxypropylcellulose) (HPC)) does the source give for `CCN(CC)CCNCc1ccc(Cl)cc1` here?
Answer: 92 % of control

Question: And the T/C (dose: 50.0 mg/kg/injection, schedule: Q04DX003 (ip), vehicle: Klucel (hydroxypropylcellulose) (HPC))?
Answer: 96 % of control

Question: What about the T/C (dose: 75.0 mg/kg/injection, schedule: Q04DX003 (ip), vehicle: Klucel (hydroxypropylcellulose) (HPC)) of the same molecule?
Answer: 96 % of control and 103 % of control
